Key:
PSMA = target: T1, PSMA (Homo sapiens, UniProt Q04609); assay: In vitro PSMA competition binding assay ([^18F]DCFPyL displacement on LNCaP cells); conditions: radioligand [^18F]DCFPyL, n = 3
T1 construct: endogenous in cells; host or cells: LNCaP cells (ATCC via Cedarlane)
Description: The binding affinities of Ga-AV01017, Ga-AV01030, Ga-AV01038, Ga-HTK03041, and Ga-FAPI-04 to PSMA were measured by a cell-based binding assay using PSMA-expressing LNCaP prostate cancer cells. The nonradioactive Ga-complexed standards, except Ga-FAPI-04, inhibited the binding of [^18F]DCFPyL to LNCaP cells in a dose-dependent manner (Figure 3A).
The PSMA binding assays were conducted following previously published procedures using LNCaP cells and [^18F]DCFPyL as the radioligand [34, 42, 43]. Data analyses of IC50 were performed using the nonlinear regression algorithm of GraphPad Prism 7 (San Diego, CA, USA) software.

recombinant human FAP = target: T2, recombinant human FAP (Homo sapiens, UniProt Q12884); assay: In vitro FAP fluorescence enzyme-inhibition assay (Suc-Gly-Pro-AMC substrate); assay type: biochemical; conditions: n = 3
T2 construct: purchased Biolegend
T2 sequence (Q12884 1-760): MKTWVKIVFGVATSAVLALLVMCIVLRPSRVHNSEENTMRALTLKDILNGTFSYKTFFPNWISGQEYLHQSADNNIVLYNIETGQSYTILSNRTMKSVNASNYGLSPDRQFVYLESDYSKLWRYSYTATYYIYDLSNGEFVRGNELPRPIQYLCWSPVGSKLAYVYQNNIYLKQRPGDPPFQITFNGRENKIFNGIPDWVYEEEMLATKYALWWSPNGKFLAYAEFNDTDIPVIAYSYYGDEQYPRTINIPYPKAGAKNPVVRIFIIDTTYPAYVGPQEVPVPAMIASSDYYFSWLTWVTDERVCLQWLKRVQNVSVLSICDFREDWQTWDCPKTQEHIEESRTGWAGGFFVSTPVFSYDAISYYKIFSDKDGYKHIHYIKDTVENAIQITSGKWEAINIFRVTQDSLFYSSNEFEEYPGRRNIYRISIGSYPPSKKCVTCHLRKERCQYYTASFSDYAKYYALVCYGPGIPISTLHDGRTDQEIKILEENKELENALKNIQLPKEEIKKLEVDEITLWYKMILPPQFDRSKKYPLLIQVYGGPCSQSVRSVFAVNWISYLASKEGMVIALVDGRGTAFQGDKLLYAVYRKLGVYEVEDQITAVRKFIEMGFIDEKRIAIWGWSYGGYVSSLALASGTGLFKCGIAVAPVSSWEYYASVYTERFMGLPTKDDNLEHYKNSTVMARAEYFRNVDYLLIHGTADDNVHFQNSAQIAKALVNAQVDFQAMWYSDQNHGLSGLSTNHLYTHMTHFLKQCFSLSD
Description: The binding affinities of Ga-AV01017, Ga-AV01030, Ga-AV01038, Ga-HTK03041, and Ga-FAPI-04 to human FAP were measured by an enzyme-inhibition assay using Suc-Gly-Pro-AMC as the FAP substrate. The human FAP enzymatic activity on the substrate was inhibited by Ga-complexed standards in a dose-dependent manner (Figure 3B).
The half maximal inhibitory concentration (IC50) values of the tested compounds for FAP were measured by in vitro enzymatic assay. The recombinant human FAP (Biolegend; 0.2 µg/mL, 50 µL) was added into a costar 96-well plate. PBS and varied concentrations (0.2 pM to 2 µM) of tested nonradioactive Ga-complexed standards were added to each well (in duplicate) containing the recombinant human FAP. After being incubated for 30 min at 37 °C, 50 µL of Suc-Gly-Pro-AMC (2 µM, Bachem) was added to each well. The fluorescent signals were acquired at 15, 30, 45, and 60 min using a FlexStation 3 Multi-Mode Microplate Reader with excitation at 380 nm and emission at 460 nm. The IC50(FAP) was calculated using a “nonlinear fit model” built-in model in GraphPad Prism 7.02 software

[1] = tested on: PSMA-expressing LNCaP tumor xenografts; assay: Ex vivo biodistribution in LNCaP tumor-bearing mice; conditions: 1 h post injection, range over LNCaP and HEK293T:hFAP tumor-bearing mice
Description: Biodistribution studies were conducted at 1 h post injection with ^68Ga-labeled AV01017, AV01030, AV01038, HTK03041, and FAPI-04 in LNCaP tumor-bearing mice (Figure 5 and Table S4, Supplementary Materials). The results were consistent with the observation from their PET images. Tumor uptake values for [^68Ga]Ga-AV01017, [^68Ga]Ga-AV01030, [^68Ga]Ga-AV01038, [^68Ga]Ga-HTK03041, and [^68Ga]Ga-FAPI-04 were 4.38 ± 0.55, 5.17 ± 0.51, 4.25 ± 0.86, 23.1 ± 6.11, and 3.15 ± 1.43 %ID/g, respectively. […] Although not statistically significant, the bispecific tracers with a longer linker tend to have a higher blood uptake value (9.24 ± 1.55 %ID/g for [^68Ga]Ga-AV01017; 7.07 ± 0.31%ID/g for [^68Ga]Ga-AV01038; 5.75 ± 0.59 %ID/g for [^68Ga]Ga-AV01030) and a lower tumor-to-blood ratio (0.48 ± 0.11 for [^68Ga]Ga-AV01017; 0.60 ± 0.13 for [^68Ga]Ga-AV01038; 0.89 ± 0.03 for [^68Ga]Ga-AV01030).
Imaging and biodistribution studies were performed using male NOD.Cg-Rag1tm1Mom Il2rgtm1Wjl/SzJ (NRG) mice following previously published procedures. The experiments were conducted according to the guidelines established by the Canadian Council on Animal Care and approved by Animal Ethics Committee of the University of British Columbia. The mice were briefly sedated by inhalation of 2.5% isoflurane in oxygen, and 100 µL LNCaP (2 × 10^5 cells) or HEK293T:hFAP (8.5 × 10^6 cells) cells were inoculated subcutaneously behind the left shoulder. When the tumor grew to 5–8 mm in diameter over 3–4 weeks and 4–5 weeks for HEK293T:hFAP and LNCaP tumors, respectively, the mice were used for PET/CT imaging and biodistribution studies.
For biodistribution studies, the mice were injected with the radiotracer (~2–4 MBq) as described above. At 1 h post injection, the mice were euthanized by CO2 inhalation. Blood was withdrawn by cardiac puncture, and organs/tissues of interest were collected, weighed, and counted using a Perkin Elmer (Waltham, MA, USA) Wizard2 2480 automatic gamma counter.

T1 sequence (Q04609 whole entry): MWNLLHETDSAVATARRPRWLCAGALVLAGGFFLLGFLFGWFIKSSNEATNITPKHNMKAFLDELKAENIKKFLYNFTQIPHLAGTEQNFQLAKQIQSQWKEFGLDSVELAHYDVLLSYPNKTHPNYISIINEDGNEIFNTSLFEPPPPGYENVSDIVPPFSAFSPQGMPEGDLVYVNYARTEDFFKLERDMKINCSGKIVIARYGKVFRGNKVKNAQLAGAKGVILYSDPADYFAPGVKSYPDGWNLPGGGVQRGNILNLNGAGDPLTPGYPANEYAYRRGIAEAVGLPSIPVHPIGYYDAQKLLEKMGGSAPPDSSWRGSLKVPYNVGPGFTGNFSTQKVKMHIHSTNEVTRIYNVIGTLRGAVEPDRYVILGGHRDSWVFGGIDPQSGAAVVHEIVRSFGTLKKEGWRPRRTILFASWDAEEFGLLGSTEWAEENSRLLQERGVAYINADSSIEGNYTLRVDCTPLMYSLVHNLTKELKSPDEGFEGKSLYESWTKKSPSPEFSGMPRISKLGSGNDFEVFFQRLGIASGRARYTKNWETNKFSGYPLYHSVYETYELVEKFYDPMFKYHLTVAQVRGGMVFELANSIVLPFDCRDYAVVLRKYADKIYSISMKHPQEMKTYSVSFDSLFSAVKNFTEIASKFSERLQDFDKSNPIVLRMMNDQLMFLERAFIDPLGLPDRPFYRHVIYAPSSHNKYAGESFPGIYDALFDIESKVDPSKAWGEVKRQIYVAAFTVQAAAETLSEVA

| IC50 (PSMA) | IC50 (recombinant human FAP) | Blood uptake values (range over both tumor models) [1] | SMILES |
| --- | --- | --- | --- |
| 0.0252 ± 0.0107 µM | 0.00125 ± 0.00039 µM | 9.24–11.9 %ID/g | N#C[C@@H]1CC(F)(F)CN1C(=O)CNC(=O)c1ccnc2ccc(OCCCc3cn(CC(=O)N[C@@H](CCCCNC(=O)CN4CCN(CC(=O)[O-])CCN(CC(=O)[O-])CCN(CC(=O)[O-])CC4)C(=O)NCC(=O)NC[C@H]4CC[C@H](C(=O)N[C@@H](Cc5c6ccccc6cc6ccccc56)C(=O)NCCCC[C@H](NC(=O)N[C@@H](CCC(=O)O)C(=O)O)C(=O)O)CC4)nn3)cc12.[Ga+3] [Ga-AV01017] |
| 0.0294 ± 0.0252 µM | 0.00231 ± 0.00013 µM | 7.07–7.45 %ID/g | N#C[C@@H]1CC(F)(F)CN1C(=O)CNC(=O)c1ccnc2ccc(OCc3cn(CC(=O)N[C@@H](CCCCNC(=O)CN4CCN(CC(=O)[O-])CCN(CC(=O)[O-])CCN(CC(=O)[O-])CC4)C(=O)NCC(=O)NC[C@H]4CC[C@H](C(=O)N[C@@H](Cc5c6ccccc6cc6ccccc56)C(=O)NCCCC[C@H](NC(=O)N[C@@H](CCC(=O)O)C(=O)O)C(=O)O)CC4)nn3)cc12.[Ga+3] [Ga-AV01038] |
| 0.0716 ± 0.023 µM | 0.00274 ± 0.00033 µM | 5.68–5.75 %ID/g | N#C[C@@H]1CC(F)(F)CN1C(=O)CNC(=O)c1ccnc2ccc(-c3cn(CC(=O)N[C@@H](CCCCNC(=O)CN4CCN(CC(=O)[O-])CCN(CC(=O)[O-])CCN(CC(=O)[O-])CC4)C(=O)NCC(=O)NC[C@H]4CC[C@H](C(=O)N[C@@H](Cc5c6ccccc6cc6ccccc56)C(=O)NCCCC[C@H](NC(=O)N[C@@H](CCC(=O)O)C(=O)O)C(=O)O)CC4)nn3)cc12.[Ga+3] [Ga-AV01030] |

| SMILES | IC50 (PSMA) | IC50 (recombinant human FAP) | Blood uptake values (range over both tumor models) [1] |
| --- | --- | --- | --- |
| O=C([O-])CN1CCN(CC(=O)[O-])CCN(CC(=O)NC[C@H]2CC[C@H](C(=O)N[C@@H](Cc3c4ccccc4cc4ccccc34)C(=O)NCCCC[C@H](NC(=O)N[C@@H](CCC(=O)O)C(=O)O)C(=O)O)CC2)CCN(CC(=O)[O-])CC1.[Ga+3] [Ga-HTK03041, reference compound] | 0.00076 ± 0.00012 µM | 2.01 ± 0.585 µM |  |

— article PMC9921851, “Synthesis and Preclinical Evaluation of Three Novel ^68Ga-Labeled Bispecific PSMA/FAP-Targeting Tracers for Prostate Cancer Imaging” (Molecules, 2023)
